The values below come from patent publication US20230114241A1, “METHODS OF TREATING EPILEPSY USING THE SAME” (Trevena, Inc., priority 2019, published 2023).

The target in series [1] is T1, human sphingosine-1-phosphate receptor 1 (S1P1) (Homo sapiens, UniProt P21453). The series can be described thus: β-Arrestin2 recruitment assay (PathHunter), S1P1 CHO-K1 cells. It counts as cell-based. Conditions: for Emax: efficacy normalized to maximum efficacy of fingolimod, read-out: hS1P1 B-arrestin2 SPAN; for EC50: β-arrestin2 recruitment, read-out: hS1P1 B-arrestin2 pEC50 (converted). In a few lines: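 Agonist-driven β-arrestin2 recruitment measured by β-galactosidase complementation after 60 min compound exposure at 37 °C and 1 h detection at room temperature. Cells: stable CHO-K1 line expressing tagged human S1P1 with EA-β-arrestin2, plated the night before. Data expressed relative to fingolimod.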
(In general: Recruitment of arrestin is a read-out of receptor activation apart from second messengers.)
Target sequence in this assay (P21453 whole entry): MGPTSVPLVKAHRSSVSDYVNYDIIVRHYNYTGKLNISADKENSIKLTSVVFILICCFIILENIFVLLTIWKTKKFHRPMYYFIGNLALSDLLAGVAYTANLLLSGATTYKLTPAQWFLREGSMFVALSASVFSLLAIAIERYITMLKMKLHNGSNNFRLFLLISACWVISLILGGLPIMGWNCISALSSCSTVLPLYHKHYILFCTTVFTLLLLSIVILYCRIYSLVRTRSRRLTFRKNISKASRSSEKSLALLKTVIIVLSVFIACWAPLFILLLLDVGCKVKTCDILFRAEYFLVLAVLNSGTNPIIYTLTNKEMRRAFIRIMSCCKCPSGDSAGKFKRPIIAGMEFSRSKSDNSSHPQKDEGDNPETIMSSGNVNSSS
Target sequence in this assay (P32121 whole entry partner): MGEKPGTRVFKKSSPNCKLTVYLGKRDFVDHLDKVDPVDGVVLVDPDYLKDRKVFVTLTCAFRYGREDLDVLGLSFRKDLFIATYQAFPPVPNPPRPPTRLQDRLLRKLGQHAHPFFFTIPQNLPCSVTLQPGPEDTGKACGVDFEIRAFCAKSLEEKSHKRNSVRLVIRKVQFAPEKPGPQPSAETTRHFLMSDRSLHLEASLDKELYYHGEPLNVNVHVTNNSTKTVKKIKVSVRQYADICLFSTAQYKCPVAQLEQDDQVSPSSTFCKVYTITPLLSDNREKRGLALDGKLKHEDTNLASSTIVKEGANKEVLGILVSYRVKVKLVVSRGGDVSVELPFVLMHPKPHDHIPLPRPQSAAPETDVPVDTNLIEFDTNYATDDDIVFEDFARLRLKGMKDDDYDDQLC

Series [2] addresses sphingosine-1-phosphate receptor 5 (S1P5) (Homo sapiens, UniProt Q9H228). As to the kind of experiment: Selectivity: inhibition of cAMP production (HTRF), S1P5 CHO-K1 cells. It counts as cell-based. Conditions: for Emax: CHO-K1, efficacy normalized to maximal efficacy of fimgolimod, read-out: hS1P5 cAMP SPAN; for EC50: inhibition of cAMP production, read-out: hS1P5 cAMP pEC50 (converted). On the procedure: (§1) Cell Culturing and Assay Plating Cell lines were cultured in AssayComplete™ Media 6 (DiscoverX Corporation, Cat #: 920018GF2) at 37° C. and 5% CO2 in a humidified CO2 and temperature-controlled incubator. To begin assay plating, cells were washed with Dulbecco's phosphate buffered saline (CellGro, Cat #: 21-031-CV) and lifted from the culturing flask by incubation (37° C., 5 min) with CellStripper (Cellgro, Cat #: 25-056-CI). […] Plated cells were incubated overnight at 37° C. and 5% CO2 in a humidified CO2 and temperature-controlled incubator. Detecting Inhibition of cAMP Production
(§2) S1P3 and S1P5 Agonist-promoted G-protein responses were determined by measuring changes in intracellular cAMP using the HTRF® cAMP HiRange kit (CisBio, Cat #: 62AM6PEJ) based on time-resolved fluorescence resonance energy transfer (TR-FRET) technology. […] Following a 30-minute room temperature incubation the components of the cAMP HiRange kit were added as per the manufacturer's instructions. After an hour incubation at room temperature, plates were analyzed by a BMG PheraStar microplate reader.
(§3) These values are normalized to fimgolimod, a known agonist of the sphingosine-1-phosphate 3 and 5 receptor or CYM5520, a known agonist of the sphingosine-1-phosphate 2 receptor. The tables also include potency values (pEC50) for modulating discrete receptor-mediated activities (inhibition of cAMP production or inositol monophosphate accumulation).

The target of series [3] is human sphingosine-1-phosphate receptor 2 (S1P2) (Homo sapiens, UniProt O95136). The series can be described thus: Selectivity: inositol monophosphate production (IP-one), S1P2 CHO-K1 cells. In kind it is cell-based. The note with it: for Emax: CHO-K1, efficacy normalized to maximal efficacy of CYM5520, read-out: hS1P2 IP-one SPAN; for EC50: inositol monophosphate accumulation, read-out: hS1P2 IP-one pEC50 (converted). On the procedure:
as §1
S1P2 Agonist-promoted G-protein responses were determined by measuring changes in intracellular inositol monophosphate using the IP-one TB kit (CisBio, Cat #: 62IPAPEJ) based on time-resolved fluorescence resonance energy transfer (TR-FRET) technology. AssayComplete™ Cell Plating 2 Reagent was removed and replaced with 1× IP-one stimulation buffer (as per manufacturer's instructions) along with test or control compounds at the desired concentrations.
Following a 60-minute incubation at 37° C. and 5% CO2 in a humidified CO2 and temperature-controlled incubator, the components of the IP-one TB kit were added as per the manufacturer's instructions. After an hour incubation at room temperature, plates were analyzed by a BMG PheraStar microplate reader.
as §3

The target in series [4] is T1, human sphingosine-1-phosphate receptor 1 (S1P1). As to the kind of experiment: Inhibition of cAMP production (HTRF cAMP HiRange), S1P1 CHO-K1 cells. The note with it: for Emax: CHO-K1, efficacy normalized to maximum efficacy of fingolimod, read-out: hS1P1 CAMP SPAN; for EC50: read-out: hS1P1 CAMP pEC50 (converted). It counts as cell-based. In a few lines: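 Intracellular cAMP changes read by TR-FRET (HTRF HiRange, 1 h room temperature) after 30 min compound exposure at 37 °C. Cells: overnight-plated CHO-K1 stably expressing tagged human S1P1 with EA-β-arrestin2. Responses normalized to fingolimod.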
(In general: Cyclic AMP is a second messenger, typically raised through Gs and lowered through Gi signalling.)
Target sequence in this assay (P21453 whole entry): as the sequence (P21453 whole entry) above

Series [5] has as its target human sphingosine-1-phosphate receptor 3 (S1P3) (Homo sapiens, UniProt Q99500). The series can be described thus: Selectivity: inhibition of cAMP production (HTRF), S1P3 CHO-K1 cells. In kind it is cell-based. The note with it: for Emax: CHO-K1, efficacy normalized to maximal efficacy of fimgolimod, read-out: hS1P3 cAMP SPAN; for EC50: inhibition of cAMP production, read-out: hS1P3 cAMP pEC50 (converted). On the procedure:
as §1, §2, §3

Series [6] relates to peripheral blood lymphocytes. As to the kind of experiment: Lymphopenia: peripheral blood lymphocyte counts, acute and chronic s.c. dosing. It counts as in vivo. The note with it: 6 mg/kg sc, 7 days, c57bl/6 mice; vs vehicle. On the procedure: Compounds were tested for changes in peripheral blood lymphocytes in C57bl/6 mice. In acute studies, animals (n=5/group) were dosed subcutaneously with test compound at a dose of 3 mg/kg. Animals were sacrificed at specific time points and […] of whole blood was collected in EDTA (K2) Eppendorf tubes. Blood was stored on ice and shipped immediately overnight delivery to Charles River Laboratories for analysis. CRL ran samples through their WBC/differential panel on an Advia 120 instrument. We received peripheral lymphocyte counts (10^3 cells/μl) for each blood sample. Treatment group means were compared to a vehicle treatment group for statistical significance. In chronic studies, animals (n=6-8/group) were dosed subcutaneously for three to seven days with test compound at doses that were at least 5-fold higher than the efficacious dose in pharmacology/behavioral assays. On the last day, animals were sacrificed 45 minutes to 6 hrs after the final dose. Whole blood was collected and analyzed as described for acute studies. […]

The mark [7] stands for this setting: inhibition of cAMP production, S1P1.
[8] abbreviates: CHO-K1, β-arrestin2 recruitment.
The mark [9] stands for this setting: inhibition of cAMP production, potency.

human sphingosine-1-phosphate receptor 2 (S1P2), sequence (O95136 whole entry): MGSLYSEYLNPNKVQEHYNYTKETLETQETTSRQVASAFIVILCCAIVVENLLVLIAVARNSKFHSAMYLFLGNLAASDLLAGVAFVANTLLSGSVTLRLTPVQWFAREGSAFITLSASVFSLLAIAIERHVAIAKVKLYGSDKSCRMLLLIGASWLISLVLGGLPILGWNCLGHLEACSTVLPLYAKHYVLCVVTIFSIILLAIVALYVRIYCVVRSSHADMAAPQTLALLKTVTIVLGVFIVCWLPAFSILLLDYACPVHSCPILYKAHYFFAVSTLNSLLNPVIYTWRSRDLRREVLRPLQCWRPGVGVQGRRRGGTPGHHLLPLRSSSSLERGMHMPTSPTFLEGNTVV
human sphingosine-1-phosphate receptor 3 (S1P3), sequence (Q99500 whole entry): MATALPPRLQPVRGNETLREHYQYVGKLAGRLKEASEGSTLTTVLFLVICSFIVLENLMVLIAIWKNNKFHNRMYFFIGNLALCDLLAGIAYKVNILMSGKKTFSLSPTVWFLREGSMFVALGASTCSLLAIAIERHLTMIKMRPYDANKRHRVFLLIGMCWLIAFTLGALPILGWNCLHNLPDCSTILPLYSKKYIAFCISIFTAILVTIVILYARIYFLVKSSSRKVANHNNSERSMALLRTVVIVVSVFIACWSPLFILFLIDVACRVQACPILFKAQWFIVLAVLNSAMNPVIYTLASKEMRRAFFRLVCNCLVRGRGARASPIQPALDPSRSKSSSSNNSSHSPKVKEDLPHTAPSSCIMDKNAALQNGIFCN
sphingosine-1-phosphate receptor 5 (S1P5), sequence (Q9H228 whole entry): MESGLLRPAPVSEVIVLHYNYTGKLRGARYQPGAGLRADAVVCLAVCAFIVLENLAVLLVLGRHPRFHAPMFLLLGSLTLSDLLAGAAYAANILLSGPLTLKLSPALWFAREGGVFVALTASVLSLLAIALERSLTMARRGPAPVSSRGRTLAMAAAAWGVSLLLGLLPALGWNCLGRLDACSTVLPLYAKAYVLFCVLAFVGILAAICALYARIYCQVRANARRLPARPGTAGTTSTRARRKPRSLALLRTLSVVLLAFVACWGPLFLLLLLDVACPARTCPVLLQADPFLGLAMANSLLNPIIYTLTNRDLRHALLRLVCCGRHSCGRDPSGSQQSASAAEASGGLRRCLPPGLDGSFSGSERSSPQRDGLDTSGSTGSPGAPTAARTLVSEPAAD

On to `COc1ccccc1-c1nc(-c2ccc3c(ccn3C(C)C)c2)no1` [Compound 398, 3-(1-isopropyl-1H-indol-5-yl)-5-(2-methoxyphenyl)-1,2,4-oxadiazole], for which the Emax in series [1] (CHO-K1) is greater than 75%; in series [2] it was less than 50%; in series [3] it was less than 50%; in series [4], greater than 75%; in series [5], less than 50%. Further, the EC50 was less than 10 µM in series [1] (S1P1); greater than 10 µM in series [2]; greater than 10 µM in series [3]; less than 316 nM in series [4] (setting [7]); greater than 10 µM in series [5].

For the compound `COc1cnccc1-c1nc(-c2ccc3c(ccn3C(C)C)c2)no1` [Compound 391, 3-(1-isopropyl-1H-indol-5-yl)-5-(3-methoxypyridin-4-yl)-1,2,4-oxadiazole], the Emax in series [1] (CHO-K1) is greater than 75%; in series [2], less than 50%; in series [3] it was less than 50%; in series [4], greater than 75%; in series [5], greater than 50%. Moreover, the EC50 was less than 10 µM in series [1] (S1P1); less than 10 µM in series [2]; less than 10 µM in series [3]; less than 316 nM in series [4] (setting [7]); less than 10 µM in series [5].

Consider `COc1cc(NC(C)=O)ccc1-c1noc(-c2ccc(NC(C)C)c(C#N)c2)n1` [Compound 731, N-[4-(5-{3-cyano-4-[(propan-2-yl)amino]phenyl}-1,2,4-oxadiazol-3-yl)-3-methoxyphenyl]acetamide], for which, in series [6], the “Lymphopenia effect (change in peripheral blood lymphocytes)” value was −78% stat sig: 6 mg/kg, 7 days.

As to `CCC1(CC)CC(=O)c2cc(-c3nc(-c4ccc5[nH]ncc5c4)no3)ccc2O1` [Compound 152, 6-(3-(1H-indazol-5-yl)-1,2,4-oxadiazol-5-yl)-2,2-diethyl-chroman-4-one], the Emax is greater than 75% in series [1] (setting [8]); less than 50% in series [2]; less than 50% in series [3]; greater than 75% in series [4] (inhibition of cAMP production); less than 50% in series [5]. For the same compound, the EC50 is less than 10 µM in series [1] (potency); greater than 10 µM in series [2]; greater than 10 µM in series [3]; greater than 316 nM in series [4] (setting [9]); greater than 10 µM in series [5].

As for `C=CCNc1ccc(-c2nc(-c3cn[nH]c3)no2)cc1C#N` [Compound 252, 5-(3-(1H-pyrazol-4-yl)-1,2,4-oxadiazol-5-yl)-2-(allyl-amino)benzonitrile], the Emax in series [1] (setting [8]) is greater than 75%; in series [2], greater than 50%; in series [3] it was less than 50%; in series [4] (inhibition of cAMP production), greater than 75%; in series [5], less than 50%. Also, the EC50 in series [2], in series [3] and in series [5] was less than 10 µM in each case.

`Cc1ccncc1-c1noc(-c2ccc3c(c2)nnn3C2CCC2)n1` [Compound 417, 1-cyclobutyl-5-[3-(4-methylpyridin-3-yl)-1,2,4-oxadiazol-5-yl]-1H-1,2,3-benzotriazole]: the Emax was greater than 75% in series [1] (CHO-K1); less than 50% in series [2]; less than 50% in series [3]; greater than 75% in series [4]; less than 50% in series [5]. Moreover, the EC50 in series [1] (S1P1) was less than 10 µM; in series [2], greater than 10 µM; in series [3], less than 10 µM; in series [4] (setting [7]), less than 316 nM; in series [5] it was greater than 10 µM.

As to `C=CCNc1ccc(-c2nc(-c3ccc4sc(N)nc4c3)no2)cc1C#N` [Compound 267, 2-(allylamino)-5-(3-(2-aminobenzo[d]thiazol-5-yl)-1,2,4-oxadiazol-5-yl)benzonitrile], the Emax in series [1] (setting [8]) is less than 75%; in series [2], less than 50%; in series [3], less than 50%; in series [4] (inhibition of cAMP production), less than 75%; in series [5], less than 50%. The EC50 was less than 10 µM in series [1] (potency); greater than 10 µM in series [2]; greater than 10 µM in series [3]; less than 316 nM in series [4] (setting [9]); greater than 10 µM in series [5].

Regarding `COc1ccccc1-c1nnc(-c2ccc3c(c2)oc(=O)n3C)o1` [Compound 406, 6-[5-(2-methoxy-phenyl)-1,3,4-oxadiazol-2-yl]-3-methyl-2,3-dihydro-1,3-benzoxazol-2-one], the Emax is greater than 75% in series [1] (CHO-K1); less than 50% in series [2]; less than 50% in series [3]; greater than 75% in series [4]; less than 50% in series [5]. Further, the EC50 in series [1] (S1P1) is less than 10 µM; in series [2], greater than 10 µM; in series [3] it was greater than 10 µM; in series [4] (setting [7]), less than 316 nM; in series [5] it was greater than 10 µM.

As to `CCC1(CC)CC(=O)c2cc(-c3nc(-c4ccccc4Cl)no3)ccc2O1` [Compound 221, 6-(3-(2-chlorophenyl)-1,2,4-oxadiazol-5-yl)-2,2-diethylchroman-4-one], the Emax was greater than 75% in series [1] (setting [8]); less than 50% in series [2]; less than 50% in series [3]; greater than 75% in series [4] (inhibition of cAMP production); less than 50% in series [5]. Moreover, the EC50 in series [1] (potency) is less than 10 µM; in series [2], less than 10 µM; in series [3], greater than 10 µM; in series [4] (setting [9]) it was less than 316 nM; in series [5], less than 10 µM.

On to `CCC1(CC)CC(=O)c2cc(-c3nc(-c4ccnc(O)c4)no3)ccc2O1` [Compound 263, 2,2-diethyl-6-[3-(2-hydroxy-4-pyridyl)-1,2,4-oxadiazol-5-yl]chroman-4-one], for which the Emax is greater than 75% in series [1] (setting [8]); less than 50% in series [2]; less than 50% in series [3]; greater than 75% in series [4] (inhibition of cAMP production); less than 50% in series [5]. Moreover, the EC50 in series [1] (potency) was less than 10 µM; in series [2], greater than 10 µM; in series [3] it was greater than 10 µM; in series [4] (setting [9]), less than 316 nM; in series [5], greater than 10 µM.

On to `CC(C)n1nnc2cc(-c3nc4c(o3)Cc3ccccc3-4)ccc21` [Compound 219, 5-{8H-indeno[1,2-d][1,3]oxazol-2-yl}-1-(propan-2-yl)-1H-1,2,3-benzotriazole], for which the Emax in series [1] (setting [8]) was greater than 75%; in series [2], less than 50%; in series [3], less than 50%; in series [4] (inhibition of cAMP production), less than 75%; in series [5] it was less than 50%. The EC50 was less than 10 µM in series [1] (potency); greater than 10 µM in series [2]; less than 10 µM in series [3]; less than 316 nM in series [4] (setting [9]); greater than 10 µM in series [5].
